These results are taken from US6080871A, “Sulfonamides and sulfamides as H3 receptor antagonists” (James Black Foundation Limited, priority 1996, dated 2000).

Molecules are shown by their SMILES.

T2 sequence (Q9JI35 whole entry): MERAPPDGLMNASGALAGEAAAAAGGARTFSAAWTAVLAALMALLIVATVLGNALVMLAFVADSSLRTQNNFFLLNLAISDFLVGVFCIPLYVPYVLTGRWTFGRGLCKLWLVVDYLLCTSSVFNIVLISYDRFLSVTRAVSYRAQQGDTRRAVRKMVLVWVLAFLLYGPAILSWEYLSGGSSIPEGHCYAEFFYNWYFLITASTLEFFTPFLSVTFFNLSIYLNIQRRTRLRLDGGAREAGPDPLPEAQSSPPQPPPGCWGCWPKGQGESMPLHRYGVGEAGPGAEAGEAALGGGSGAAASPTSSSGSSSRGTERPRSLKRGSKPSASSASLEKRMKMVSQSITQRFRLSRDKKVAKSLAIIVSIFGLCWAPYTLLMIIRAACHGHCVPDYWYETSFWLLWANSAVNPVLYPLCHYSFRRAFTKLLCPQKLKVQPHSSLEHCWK

One assay deals with T1, H3 receptor (Cavia porcellus, UniProt Q9JI35).
T1 construct: the longitudinal muscle layer and adhering myenteric plexus was teased away; from tissue; host or cells: ileal longitudinal muscle with adhering myenteric plexus of male Dunkin-Hartley guinea pigs
T1 sequence (Q9JI35 whole entry): as above
Description: H3 receptor bioassay (functional assay), guinea pig ileal longitudinal muscle myenteric plexus. The class given is cell-based. As to conditions: antagonism of R-(α)-methylhistamine E/[A] curve, Schild's methods; electrically stimulated guinea pig ileum; variance ±0.15 log units. The method, then: The biological activity of the compounds of the examples was measured using the ileal longitudinal muscle, myenteric plexus assay described by Paton and Aboo Zar (J. Physiol. 194, 13-33 (1968)). Male Dunkin-Hartley guinea pigs (250-300 g) were employed. Briefly, a 50 cm portion of ileum proximal to the caecum was removed, after discarding the terminal 20 cm. Ileal segments (3 cm) were cleaned by passing Krebs-Henseleit buffer containing 3 μM mepyramine gently through the ileum using a Pasteur pipette (size: 13.8 cm length, 0.65 cm diameter). To avoid unnecessary damage to the tissue, Krebs-Henseleit buffer was passed through the ileal segment, while it was lying horizontally on a petri dish. Therefore, the ileum was not over-distended and the buffer flowed through with ease. Each segment was then passed over a Pasteur pipette and the longitudinal muscle layer and adhering myenteric plexus was teased away using moist cotton wool, by stroking tangentially away from the mesenteric attachment. The tissues were suspended in 20 ml organ baths containing Krebs-Henseleit buffer at 37±1° C. and gassed with […]. The tissues were ligated to two parallel stainless steel wires, situated between two platinum electrodes (0.76 cm length, 0.06 cm diameter). All measurements were recorded isometrically (Grass FTO3 transducer). Following an initial loading tension of 1 g, the tissues were stimulated with electrical pulses at a frequency of 0.1 Hz and a pulse duration of 0.5msec, as described by Kosterlitz & Watt (1968). Initially, the tissues were stimulated at supramaximal (1.3 fold times maximal) voltage for a period of 30 min and then the tissues were washed and re-stimulated. A "sighter dose" of the selective histamine H3 -receptor agonist, R-(α)-methylhistamine(0.3 μM) (Arrang et al., 1987), was administered. Upon generation of response, the "sighter dose" was removed from the tissues by "washout" (6 washes over 60 min) and during this period the electrical stimulation was switched off. The tissues were then re-stimulated and allowed to stabilise prior to the addition of drug treatments, which were allocated on a randomised block basis to the organ baths. Following the incubation period, a single cumulative E/[A] curve was obtained. The experimental E/[A] curve data was expressed as the percentage inhibition of the peak height of electrically-stimulated contraction. Antagonist affinity values were calculated from the degree of rightward shift of the R-(α)-methylhistamine E/[A] curves using Schild's methods (Arunlatcshama & Schild, 1949).
(§1) Typical variance in the functional assay is ±0.15 log units. Typical variance in the binding assay is ±0.12 log units. This means that if the discrepancy between the two assays is greater than about 0.5 log units, then this difference on average is significant.
As for `O=S(=O)(NCCc1c[nH]cn1)NCc1ccccc1` [Example 35, N-[2-(4(5)-Imidazoyl)ethyl]-N'-phenylmethyl-sulfamide], the “pKB (functional assay)” value is 5.59.

The assay is the same for the next values; noted with them: antagonism of R-(α)-methylhistamine E/[A] curve, Schild's methods; electrically stimulated guinea pig ileum; variance ±0.15 log units; read-out: pKB (functional assay) (converted).
For `O=S(=O)(N[C@@H]1C[C@H]1c1c[nH]cn1)c1ccc2ccccc2c1` (relative stereo) [Example 72, N-[2-(4(5)-Imidazoyl)-trans-cyclopropyl]-2-naphthalenesulfonamide], the Kb was 955 nM.
For `O=S(=O)(NCCc1c[nH]cn1)c1ccc2ccccc2c1` [Example 1, N-[2-(4(5)-Imidazoyl)ethyl]-2-naphthalenesulfonamide], the Kb is 200 nM.
With `O=S(=O)(NCCc1c[nH]cn1)c1ccccc1` [Example 2, N-[2-(4(5)-Imidazoyl)ethyl]-benzenesulfonamide], the Kb was 2400 nM.
Take `O=S(=O)(NCCc1c[nH]cn1)c1cccc2ccccc12` [Example 3, N-[2-(4(5)-Imidazoyl)ethyl]-1-naphthalenesulfonamide]: the Kb is 537 nM.
In the case of `O=S(=O)(CCCC1CCCCC1)NCCc1c[nH]cn1` [Example 4, N-[2-(4(5)-Imidazoyl)ethyl]-3-cyclohexylpropanesulfonamide], the Kb was 398 nM.
Same read-out and setting: the same measure for `O=S(=O)(NCCCCCc1c[nH]cn1)c1ccc2ccccc2c1` [Example 6, N-[5-(4(5)-Imidazoyl)pentyl]-2-naphthalenesulfonamide]: 110 nM; for `O=S(=O)(NCCc1c[nH]cn1)c1ccc(Cl)c(Cl)c1` [Example 16, N-[2-(4(5)-Imidazoyl)ethyl]-3,4-dichlorobenzenesulfonamide]: 170 nM.
Same read-out and setting: the same measure for `O=S(=O)(CCc1ccccc1)NCCc1c[nH]cn1` [Example 17, N-[2-(4(5)-Imidazoyl)ethyl]-2-phenylethanesulfonamide]: 447 nM; for `O=S(=O)(CCCc1ccccc1)NCCc1c[nH]cn1` [Example 18, N-[2-(4(5)-Imidazoyl)ethyl]-3-phenylpropanesulfonamide]: 162 nM.
For the compound `O=S(=O)(Cc1ccc(Cl)cc1)NCCCc1c[nH]cn1` [Example 26, N-[3-(4(5)-Imidazoyl)propyl]-(4-chlorophenyl)methanesulfonamide], the Kb was 513 nM.
On to `O=S(=O)(NCCCc1c[nH]cn1)c1ccccc1` [Example 27, N-[3-(4(5)-Imidazoyl)propyl]-benzenesulfonamide], for which the Kb was 7760 nM.
Still for that read-out and setting: then `O=S(=O)(NCCCc1c[nH]cn1)c1ccc2ccccc2c1` [Example 28, N-[3-(4(5)-Imidazoyl)propyl]-2-naphthalenesulfonamide], with 4070 nM.
Regarding `O=S(=O)(NCCCc1c[nH]cn1)NCc1ccccc1` [Example 36, N-[3-(4(5)-Imidazoyl)propyl]-N'-phenylmethyl-sulfamide], the Kb is 692 nM.
For `O=S(=O)(NCCc1c[nH]cn1)NCc1ccc(Cl)cc1` [Example 37, N-[2-(4(5)-Imidazoyl)ethyl]-N'-(4-chlorophenyl)methyl-sulfamide], the Kb is 1950 nM.
For `COC(=O)[C@H](Cc1c[nH]cn1)NS(=O)(=O)c1ccc2ccccc2c1` [Example 73, 3-(4(5)-Imidazoyl)-2S-(2-naphthalene)sulfonamino-propionic Acid Methyl Ester], the Kb is 10200 nM.
On to `O=S(=O)(Cc1ccc(-c2ccccc2)cc1)NCCCCc1c[nH]cn1` [Example 84, N-[4-(4(5)-Imidazoyl)butyl]-(4-biphenyl)methanesulfonamide], for which the Kb was 7.94 nM.
As to `CN(CCCCc1c[nH]cn1)S(=O)(=O)CCc1ccc(Cl)cc1` [Example 85, N-[4-(4(5)-Imidazoyl)butyl]-N-methyl-2-(4-chlorophenyl)ethanesulfonamide], the Kb was 8.91 nM.

Staying with this assay, now noted: guinea pig; printed beside 4.99 in the line of Example 73; read-out: α (functional assay).
Consider `COC(=O)[C@H](Cc1c[nH]cn1)NS(=O)(=O)c1ccc2ccccc2c1` [Example 73, 3-(4(5)-Imidazoyl)-2S-(2-naphthalene)sulfonamino-propionic Acid Methyl Ester], for which the Emax was about 20%.

The next assay concerns the target T2, Histamine H3 (Cavia porcellus, UniProt Q9JI35).
T2 construct: ileum longitudinal muscle myenteric plexus membranes; from tissue; host or cells: ileum longitudinal muscle myenteric plexus membranes of male Dunkin Hartley guinea pigs
Description: Histamine H3 radioligand binding assay, [3H]-R-α-methylhistamine, guinea pig ileum longitudinal muscle myenteric plexus membranes.
Settings: not given
The method, then: Histamine H3 Radioligand Binding Assay
Male Dunkin Hartley guinea pigs (200-300 g) were used. The small intestine was rapidly removed (cut ~5 cm from caecum and 5 cm from stomach) and placed in ice-cold 20 mM Hepes-NaOH buffer (pH7.4 at 21±3° C.). The tissue was cut into ~10 cm segments, flushed through with ice-cold 20 mM Hepes-NaOH buffer and placed in a beaker containing fresh buffer at 4° C. 10 cm segments of ileum were threaded onto a glass pipette and the longitudinal muscle myenteric plexus was peeled away from the circular muscle using damp cotton-wool. Longitudinal muscle myenteric plexus was immediately placed in ice-cold Viaspan® solution (~100 ml for tissue from 3 guinea pigs) and placed in the refrigerator for 24 hours.
Pre-soaked tissue was weighed and minced with scissors. The tissue was then homogenised in Viaspan® using a polytron (Kinematica AG; PT-DA 3020/2TS, 3×~1-2 s). 50 ml of 500 mM Tris HCl (pH6.9 at 21±3° C.) was added to the tissue and the mixture centrifuged at 39,800×g for 12 min at 4° C. The supernatant was discarded and rehomogenised in 100 ml ice-cold 20 mM Hepes-NaOH buffer (pH7.4 at 21±3° C.) using a teflon-in-glass homogeniser (setting 10; 3×). The homogenate was recentrifuged at 39,800×g and the pellet resuspended in 20 mM Hepes-NaOH buffer (pH7.4 at 21±3° C.), to a tissue concentration of 50 mg.ml^-1, using a polytron (Brinkman, PT10, 3×~1 s).
Guinea pig ileum longitudinal muscle myenteric plexus membranes (400 μl) were incubated for 165 min at 21±3° C. in a final volume of 500 μl with 20 mM Hepes-NaOH buffer containing [^3 H]-R-α-methylhistamine (50 μl; 3 nM) and competing compound. Total and non-specific binding of [^3 H]-R-α-methylhistamine were defined using 50 μl of buffer and 50 μl of 10 μM thioperamide, respectively. The assay was terminated by rapid filtration through Whatman GF/B filters, presoaked (2 hr) in 0. 1% polyethyleneimine,using a Brandell Cell Harvester. The filters were washed (3×3 ml) with ice-cold 50 mM Tris-HCl (pH6.9 at 21±3° C.), transferred into scintillation vials, 5 ml liquid scintillation cocktail was added and after 4 hours the bound radioactivity was determined by counting (4 min) in a Beckman liquid scintillation counter.
Data are analysed using GraphPad prism and the general equation for a competition curve with variable Hill slope (nH).
Y=Non-specific binding+(Total binding-Non-specific binding)/1+10^((logIC.sbsp.50^-X).n.sbsp.H^)
X is the log concentration of competing compound, Y is the binding obtained at each concentration of X, pIC50 is the concentration of the competitor required to compete for half of the specific binding.
The IC50 is converted to the K1 using the Cheng Prusoff equation, […]
IC50 is the concentration of competitor required to compete for half the specific binding, L is the radioligand concentration used, KD is the equilibrium dissociation constant for the radioligand determined by saturation experiments.
as §1
`O=S(=O)(Cc1ccc(Br)cc1)NCCCCc1c[nH]cn1` [Example 77, N-[4-(4(5)-Imidazoyl)butyl]-(4-bromophenyl)methanesulfonamide] had a Ki of 3.09 nM.

The assay is the same for the next values; noted with them: 3 nM [3H]-R-α-methylhistamine, 165 min, 21±3° C., Cheng Prusoff; variance ±0.12 log units.
With `O=S(=O)(NCCc1c[nH]cn1)c1ccc2ccccc2c1` [Example 1, N-[2-(4(5)-Imidazoyl)ethyl]-2-naphthalenesulfonamide], the “pK1 (binding assay)” value was found to be 7.77.
Consider `O=S(=O)(NCCCCCc1c[nH]cn1)c1ccc2ccccc2c1` [Example 6, N-[5-(4(5)-Imidazoyl)pentyl]-2-naphthalenesulfonamide], for which the “pK1 (binding assay)” value amounted to 7.50.
For `O=S(=O)(Cc1ccc(Cl)cc1)NCCCCCCCCCCc1c[nH]cn1` [Example 34, N-[10-(4(5)-Imidazoyl)decyl]-(4-chlorophenyl)methanesulfonamide], the “pK1 (binding assay)” value is reported as 7.23.
Regarding `O=S(=O)(NCCCCCCCCCCc1c[nH]cn1)NCc1ccc(Cl)cc1` [Example 40, N-[10-(4(5)-Imidazoyl)decyl]-N'-(4-chlorophenyl)methyl-sulfamide], the “pK1 (binding assay)” value turned out to be 6.02.
In the case of `O=S(=O)(Cc1ccc(F)cc1)NCCCCc1c[nH]cn1` [Example 79, N-[4-(4(5)-Imidazoyl)butyl]-(4-fluoromethylphenyl)methanesulfonamide], the “pK1 (binding assay)” value came out at 8.13.

The assay is the same for the next values; noted with them: 3 nM [3H]-R-α-methylhistamine, 165 min, 21±3° C., Cheng Prusoff; variance ±0.12 log units; read-out: pK1 (binding assay) (converted).
Turning to `O=S(=O)(NCCCCc1c[nH]cn1)NCC12CC3CC(CC(C3)C1)C2` [Example 52, N-[4-(4(5)-Imidazoyl)butyl]-N'-adamant-1-ylmethyl-sulfamide], the Ki is 200 nM.
Still for that read-out and setting: then `O=S(=O)(Cc1ccc(C(F)(F)F)cc1)NCCCCc1c[nH]cn1` [Example 78, N-[4-(4(5)-Imidazoyl)butyl]-(4-trifluoromethylphenyl)methanesulfonamide], with 3.55 nM; and `C[C@@H](NS(=O)(=O)NCCCCc1c[nH]cn1)c1ccccc1` [Example 80, N-[4-(4(5)-Imidazoyl)butyl]-N'-(1R-phenylethyl)-sulfamide], with 174 nM; and `C[C@H](NS(=O)(=O)NCCCCc1c[nH]cn1)c1ccccc1` [Example 81, N-[4-(4(5)-Imidazoyl)butyl]-N'-(1S-phenylethyl)-sulfamide], with 145 nM.
On to `O=S(=O)(NCCCCCc1c[nH]cn1)NCc1ccc(-c2ccccc2)cc1` [Example 82, N-[5-(4(5)-Imidazoyl)pentyl]-N'-(4-biphenyl)methyl-sulfamide], for which the Ki was 27.5 nM.
